Data from the NIST ThermoML archive (doi:10.1016/j.jct.2009.05.009).

Assay: xn = mol fraction of the nth substance listed
Conditions: 101.3 kPa, Liquid, Vibrating tube method

CCCC[N+](C)(C)C.O=S(=O)([N-]S(=O)(=O)C(F)(F)F)C(F)(F)F [butyltrimethylammonium bis(trifluoromethylsulfonyl)imide] + O
mass density [kg/m3]
Conditions	x2 = 0	x2 = 0.0387	x2 = 0.0765	x2 = 0.1132	x2 = 0.14	x2 = 0.189	x2 = 0.2108	x2 = 0.2322
293.15 K	1399.5	1398.4	1397	1395.3	1394.1	1392.4	1391.8	1391.2
298.15 K	1395	1393.9	1392.5	1390.8	1389.5	1387.8	1387.2	1386.6
303.15 K	1390.5	1389.4	1388	1386.3	1385	1383.2	1382.5	1381.8
308.15 K	1386.1	1384.9	1383.5	1381.9	1380.6	1378.7	1377.8	1377.1
313.15 K	1381.6	1380.5	1379	1377.4	1376.1	1374.1	1373.2	1372.4
318.15 K	1377.1	1376	1374.6	1372.9	1371.6	1369.6	1368.7	1367.8
323.15 K	1372.6	1371.5	1370	1368.4	1367.1	1365.1	1364.1	1363.2
328.15 K	1368.2	1367	1365.5	1363.9	1362.6	1360.5	1359.5	1358.5
333.15 K	1363.7	1362.4	1360.9	1359.3	1358	1355.8	1354.8	1353.7
338.15 K	1359.2	1357.9	1356.3	1354.7	1353.3	1351.1	1350	1348.7
343.15 K	1354.8	1353.4	1351.8	1350.2	1348.7	1346.4	1345.1	1343.8

O [water] + CCOS(=O)(=O)[O-].CCn1cc[n+](C)c1
x1 = 1
Conditions	mass density [kg/m3]
318.15 K	990.1
323.15 K	988
328.15 K	985.7
333.15 K	983.2
338.15 K	980.5
343.15 K	977.8
